# Results from PubChem BioAssay (NCI).
#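 96-well plates; 48 h exposure; 5 concentrations. Endpoints by linear interpolation between flanking doses. Not reached: highest tested concentration assigned. Abbreviation: GI50, concentration required for 50% inhibition of growth. TGI: total growth inhibition.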 Where a SMILES comes first, the peptide text is derived from it.
# How the values were obtained:
# Experiment in all cases: inhibition of tumour cell growth, NCI panel, 48 h
# [1] = tested on: EKVX NSCLC
# [2] = tested on: HCT-116 colon
# [3] = tested on: HL-60(TB) leukemia
# [4] = tested on: NCI-H226 lung
# [5] = tested on: OVCAR-4 ovarian
# [6] = tested on: OVCAR-8 ovarian
# [7] = tested on: T-47D breast
# [8] = tested on: UACC-257 melanoma
# [9] = tested on: UACC-62 melanoma
# [10] = tested on: UO-31 renal
SMILES,TGI [1],TGI [2],TGI [3],TGI [4],TGI [5],TGI [6],TGI [7],TGI [8],TGI [9],TGI [10],GI50 [3],GI50 [4],GI50 [6],GI50 [7],GI50 [9]
Cc1cc2c(cc1Cl)SC(c1ccccc1O)NS2(=O)=O (stereo not drawn),> 100 µM,> 100 µM,> 100 µM,> 100 µM,> 100 µM,> 100 µM,55.1 µM,> 100 µM,> 100 µM,> 100 µM,–,–,–,–,–
COC(=O)[C@]12CSC[C@H]1C[C@H](c1cccc3ccccc13)N2,> 100 µM,> 100 µM,–,> 100 µM,–,> 100 µM,> 100 µM,> 100 µM,> 100 µM,> 100 µM,–,–,–,–,–
O=C1CC2CC(CC3(CO3)C2)C1F (stereo not drawn),> 100 µM,> 100 µM,> 100 µM,> 100 µM,> 100 µM,> 100 µM,> 100 µM,> 100 µM,> 100 µM,> 100 µM,–,–,–,–,–
O=C(CSSCC(=O)OCCS(=O)(=O)Nc1ccc(Br)cc1)OCCS(=O)(=O)Nc1ccc(Br)cc1,> 100 µM,–,38.7 µM,–,33 µM,45.2 µM,–,44.6 µM,34.6 µM,> 100 µM,–,–,–,–,–
O=c1c(-c2ccccc2)c(SCCN2CCOCC2)n(-c2ccccc2)c(=S)n1-c1ccccc1,> 100 µM,–,> 100 µM,> 100 µM,> 100 µM,> 100 µM,–,> 100 µM,> 100 µM,–,–,–,–,–,–
COc1cc(/C=C2\N=C(c3ccccc3)N(c3nc4ccc(Sc5ccccc5)cc4[nH]3)C2=O)cc(OC)c1OC,> 100 µM,55.2 µM,37.8 µM,–,> 100 µM,> 100 µM,> 100 µM,45.6 µM,38.7 µM,> 100 µM,–,–,–,–,–
Cc1cc(=O)n2c3c(c4c(cc13)c(CN(C)C)cc(=O)n4C)OC2,> 58.2 µM,> 69.5 µM,> 100 µM,> 67.1 µM,> 77.9 µM,> 66.6 µM,> 100 µM,> 70.5 µM,30.1 µM,> 89.8 µM,–,–,–,–,–
Cn1c2cn[nH]c(=O)c2c2ccc3ccccc3c21,75.3 µM,> 100 µM,> 100 µM,> 100 µM,> 100 µM,> 100 µM,> 100 µM,> 100 µM,> 100 µM,70.6 µM,–,–,–,–,–
COc1ccc2c(c1)CCCc1c-2nc2ccccc2c1N,22.2 µM,18.6 µM,32.4 µM,28.4 µM,27.3 µM,26.8 µM,31.3 µM,9.56 µM,25.4 µM,18.5 µM,–,–,–,–,–
O=C(NC(Cc1ccc(Cl)cc1)C(=O)O)c1ccc(I)cc1 (stereo not drawn),–,> 100 µM,> 100 µM,> 100 µM,> 100 µM,> 100 µM,–,> 100 µM,> 100 µM,> 100 µM,–,–,–,–,–
COc1ccc(N=Nc2c(N)nn(C)c2N)cc1,> 100 µM,> 100 µM,> 100 µM,> 100 µM,> 100 µM,> 100 µM,–,> 100 µM,> 100 µM,> 100 µM,–,–,–,–,–
CCCCCCCCCCCCSC(=S)c1c(C)[nH]n(CCCCCCCCCCCC)c1=O,81.1 µM,> 100 µM,> 100 µM,> 100 µM,> 100 µM,> 100 µM,–,> 100 µM,> 100 µM,> 100 µM,–,–,–,–,–
O=C1CS(=O)(=O)C(c2cccc(Oc3ccccc3)c2)N1C1CC1 (stereo not drawn),> 100 µM,> 100 µM,> 100 µM,83.6 µM,64.2 µM,> 100 µM,> 100 µM,> 100 µM,> 100 µM,> 100 µM,–,–,–,–,–
CN1NC(c2ccccc2)=C(C#N)C(=O)CC1c1ccc(F)cc1 (stereo not drawn),–,> 100 µM,> 100 µM,> 100 µM,> 100 µM,–,–,> 100 µM,–,–,–,–,–,–,–
CCC(C)C(NC(=O)C(CC(C)C)NC(=O)CNC(=O)C(NC(=O)C1CCCN1C(=O)C(CC(C)C)NC(=O)C(N)Cc1ccccc1)C(C)CC)C(=O)NC(CC(C)C)C(N)=O (stereo not drawn) (H-FLPIGLIL-NH2; configuration not given here),> 75 µM,> 75 µM,> 75 µM,> 75 µM,> 75 µM,> 75 µM,> 75 µM,> 75 µM,> 75 µM,> 75 µM,–,–,–,–,–
Cc1ccc(C(=O)N/N=C(\N=Nc2ccccc2Cl)c2ccc(N(C)C)cc2)cc1,> 100 µM,> 100 µM,> 100 µM,> 100 µM,78.4 µM,> 100 µM,24.5 µM,> 100 µM,17.8 µM,> 100 µM,–,–,–,–,–
CC(C)(C)c1cc(-c2nc3ccc(N4CCN(CCO)CC4)cc3[nH]2)cc(C(C)(C)C)c1O,–,–,4.86 µM,> 100 µM,–,> 100 µM,> 100 µM,–,3.22 µM,–,1.84 µM,21.5 µM,6.53 µM,2.86 µM,1.73 µM
CCCCCCCCCCCCCCCCCC(=O)OCC1OC(OC)C(NC(=O)N(CCCl)N=O)C(O)C1O (stereo not drawn),–,–,–,86.8 µM,76.1 µM,> 100 µM,–,39.4 µM,23.3 µM,56.8 µM,–,–,–,–,–
CCC12C=CCN3CCC4(c5cc(C(c6ccc(OC)cc6)C6Cc7ccccc7N6)c(OC)cc5N(C)C4C(O)(C(=O)OC)C1O)C32 (stereo not drawn),> 100 µM,> 100 µM,24.1 µM,> 100 µM,> 100 µM,> 100 µM,9.98 µM,> 100 µM,31.4 µM,31.5 µM,–,–,–,–,–
CCN(CCO)CCNc1ccc(C)c2sc3ccccc3c(=O)c12,26.8 µM,7.76 µM,11.3 µM,14 µM,21.7 µM,14.2 µM,7.43 µM,6.16 µM,3.34 µM,15 µM,–,–,–,–,–
